Key:
Hepatitis C virus = details: alone or in combination with ribavirin; cited from earlier work
CHO cells = assay: Liposome uptake (Rh-PE) and intracellular calcein dequenching; type: cell-based, Chinese hamster
Description: The effects of different DNJ compounds on the cellular uptake and intracellular release, when encapsulated inside DCPP liposomes, was determined by diluting compounds in 80-mM calcein and incorporating Rh-PE in liposome membranes as previously described, with the final liposome composition being DOPE:CHEMS:PEG-PE:Rh-PE (DCPP-Rh, 6:4:0.3:0.1) Liposomes encapsulating calcein alone, 10-μM DNJ, 1-mM DNJ, 10-μM NB-DNJ, 1-mM NB-DNJ, 10-μM NN-DNJ, or 1-mM NN-DNJ, were incubated with CHO cells for 45 min before liposomes were removed and cells were washed twice in 1×PBS. Cells were then analyzed in a fluorometer to measure calcein dequenching (λex=490 and λem=520 nm) and rhodamine fluorescence (λex=584 and λem=612 nm). Data represent the mean±S.D. obtained from triplicates of four independent experiments, where mean rhodamine fluorescence values reflect the binding and uptake of liposomes and the mean calcein fluorescence reflects the intracellular dequenching of the dye (i.e. dye released from liposomes into intracellular compartments). Results are expressed as the percent fluorescence measured following incubation with DNJ-containing liposomes as compared to the calcein/PBS-only liposome control (=100% on the x axis).
The calculated ratio of calcein to rhodamine fluorescence is taken as a measure of the amount of aqueous marker released per cell-associated liposome, and represents the efficiency of intracellular delivery.

[1] = pH sensitivity of DCPP liposomes (calcein leakage); type: physicochemical; details: 1 mM encapsulated, pH 5.0-7.4, vs calcein only liposomes
Description: DCPP liposomes encapsulating 1-mM DNJ, NB-DNJ, or NN-DNJ in 80-mM calcein buffer were compared with empty (calcein only) liposomes to determine the effects of the alkyl chain of NB-DNJ and NN-DNJ on the pH-sensitivity. 10 μl of calcein-loaded DCPP liposomes (final phospholipid concentration, 5 μM) was added to 2 ml of MES-buffered saline at various pH values ranging from 5.0-7.4, and left to incubate with shaking 15 min at 37° C. Following incubation, calcein fluorescence was measured before and after the addition of Triton to a final concentration of 0.1%. Fluorescence intensities obtained at acidic pH values were corrected for the slight effect of pH on calcein fluorescence. The percentage of calcein release at each pH was calculated using the formula: % leakage=((in−I0)/(I100−I0))×100, where I0 is the fluorescence at neutral pH, In is the corrected intensity at acidic pH before the addition of Triton, and I100 is the total dequenched calcein at neutral pH.

[2] = encapsulated into DCPP liposomes
[3] = 10 μM encapsulated in DCPP liposomes
[4] = 1 mM encapsulated in DCPP liposomes
[5] = encapsulated in DCPP-Rh liposomes

Compound: interferon
- patients in whom therapy is effective (Hepatitis C virus): up to 80%

Compound: CCCCCCCCCN1C[C@H](O)[C@@H](O)[C@H](O)[C@H]1CO [NN-DNJ, N-nonyl deoxynojirimycin]
- Efficiency (calcein/rhodamine, AU) (CHO cells; [3]): 4.4 ± 1.3 AU
- Efficiency (calcein/rhodamine, AU) (CHO cells; [4]): 3.2 ± 1.1 AU
- cellular uptake of liposomes (CHO cells; [5]): increase in cellular uptake
- effect on calcein dequenching (intracellular release) (CHO cells; [5]): no effect
- pH sensitivity / stability of DCPP liposomes [1]: significant decrease in pH sensitivity

Compound: CSCC[C@H](NC(=O)[C@@H](NC(=O)CNC(=O)[C@H](CC(=O)O)NC(=O)[C@H](CCSC)NC(=O)[C@@H](N)Cc1ccc(O)cc1)[C@@H](C)O)C(=O)N[C@@H](CO)C(=O)N[C@@H](CCC(N)=O)C(=O)N[C@H](C(=O)O)C(C)C [YMDGTMSQV]
- change of ER delivery of the peptide [2]: reduces the ER delivery of the peptide by an order of magnitude

Compound: OC[C@H]1NC[C@H](O)[C@@H](O)[C@@H]1O [DNJ, deoxynojirimycin]
- Efficiency (calcein/rhodamine, AU) (CHO cells; [3]): 10.4 ± 1.8 AU
- Efficiency (calcein/rhodamine, AU) (CHO cells; [4]): 10.8 ± 2.0 AU
- effect on calcein dequenching (intracellular release) (CHO cells; [5]): no effect
- pH sensitivity / stability of DCPP liposomes [1]: no difference in stability

Reference: patent US20110182982A1, “LIPOSOME TREATMENT OF VIRAL INFECTIONS” (University of Oxford, priority 2006, published 2011)
